Data set [1] concerns patients with leukemia and lung cancer. As to conditions: cited from earlier work.
The test system of data set [2] is EGFR and ERK phosphorylation in PC9GR, HCC827 T790M and HCC4006 T790M cells. In words: Western blotting of signaling changes after 4 h drug treatment. The format is cell-based, human. For orientation: In western blotting, separated proteins are transferred to a membrane and probed.
Method: Signaling changes were evaluated by western blotting after 4 h treatment. […] In (E and G), equal protein loading was confirmed by β-actin evaluation.
Immunoprecipitation and protein expression analysis
Whole cell lysates were prepared using ice-cold TNN-HS buffer (50 mM HEPES, pH 8.0, 150
protease inhibitor cocktail). Total cellular proteins were quantified using the Bio-Rad protein
assay. For immunoprecipitation, 600 μg of total protein was incubated with 6 μL of mouse
Biotechnology (Santa Cruz, CA) as the control overnight at 4°C with rotation and then incubated
with protein G-agarose beads (Roche, Indianapolis, IN) for 3 hours at 4°C. Beads were washed
five times with TNN-HS buffer, and immunoprecipitated proteins were eluted from beads with
30 μL of 2X SDS-PAGE sample buffer from Bio-Rad (Hercules, CA) at 95°C for 5 minutes.
pThr202/Tyr204-p44/42 MAPK, AKT, pSer473-AKT, and tSRC from Cell Signaling; GRB2,
Data set [3] concerns the target proteins in total cell lysates of PC9 cells (Homo sapiens, UniProt P00533, DEL746-750). The experiment in a line: Midostaurin affinity chromatography (drug pulldown) with LC-MS/MS, PC9 lysate. The format is binding. The procedure: (§1) LC-MS/MS analysis was performed in duplicate on a LTQ-Orbitrap MS (Thermo Fisher).
(§2) RNA isolated from PC9 and PC9GR cells were infected with either ARHG5 shRNA or scrambled shRNA and cDNA transcription using RNeasy Mini kit and QuantiTect Reverse Transcription kit from Qiagen (Valencia, CA). Human ARHG5 probe and human 18s rRNA endogenous control were purchased from Applied Biosystems (Foster City, CA). Quantitative real-time PCR reactions were run in triplicate on MicroAmp® Optical 96-well reaction plates with barcode using the 7900HT Fast real-time PCR system, and data were analyzed with 2.3 SDS software and normalized by 18s endogenous control. […]
(§3) aminomethylbenzoic acid in the presence of HATU and diisopropylethylamine and subsequent […]
(§4) on NHS-activated Sepharose 4 Fast Flow resin (GE Healthcare Bio-Sciences AB, Uppsala, […]
(§5) Affinity chromatography was performed as reported previously with total cell lysates of PC9 and PC9GR cells containing each 5.5 mg of protein.
(§6) Eluates were loaded on a SDS-PAGE gel, briefly run into the gel, and excised as a single piece before in-gel trypsin digestion and sample processing, which was done as described (Rix et al, LC-MS/MS analysis was performed in duplicate on a LTQ-Orbitrap MS (Thermo Fisher). […]
(§7) searching with the Mascot (Matrix Science) and Sequest (Thermo Fisher) search engines.
(§8) Kinase inhibition analysis […]

Data set [4] deals with proteins in total cell lysates of PC9GR cells. The experiment in a line: Midostaurin affinity chromatography (drug pulldown) with LC-MS/MS, PC9GR lysate. The format is binding, human. The note with it: PC9 and PC9GR lysates. The procedure:
as §1, §2, §3, §4, §5, §6, §7, §8

Data set [5] addresses T1, proteins in total cell lysates of PC9GR cells (Homo sapiens, UniProt P00533, DEL746-750/T790M).
T1 construct: endogenous in cells; host or cells: PC9GR
The description is as above. The format is binding. As to conditions: PC9GR lysate, E746-A750+T790M EGFR. The procedure:
as §1, §2, §3, §4, §5, §6, §7, §8

In another data set the target is T2, EGFR L858R (Homo sapiens, UniProt P00533, L858R).
T2 construct: purchased Merck Millipore (KinaseProfiler service)
The experiment in a line: In vitro kinase inhibition assay (Millipore KinaseProfiler). The format is biochemical. As to conditions: activating point mutation L858R; 0.0001 to 1 μM vs DMSO. How it is done: (§9) In vitro kinase inhibition assays were performed on the Millipore KinaseProfiler™ platform.
(§10) In vitro kinase assays were conducted using Merck Millipore's KinaseProfiler service according to the protocols detailed at http://www.millipore.com/techpublications/tech1/pf3036.
(§11) Human Phospho-kinase array assay
(§12) PC9 and PC9GR cells were infected with lentivirus expressing shRNA against ARHG5 or scrambled shRNA as control for 48 hours. The relative levels of phosphorylation of 46 kinase phosphorylation sites determination was performed using Human Phospho-Kinase Array Kit (R&D Systems, Minneapolis, MN). Briefly, two-hundred micrograms of total cell lysate protein were incubated with Phospho-Kinase array membranes overnight at 4 C. Detection of proteins was accomplished using the Detection Antibody Cocktail and enhanced […]

For the next data set, the target named is EGFR wild type (Homo sapiens, UniProt P00533). The description is as above. As to conditions: wild-type allele; 0.0001 to 1 μM vs DMSO. The format is biochemical. How it is done:
as §9, §10, §11, §12

In the next data set the test system is HCC827 cells. The procedure: (§13) The ON-TARGET plus Smart pool custom siRNA library included siRNA pools containing four different siRNAs. This custom library and the ON-TARGET plus Non-Targeting Pool, non-targeting siRNA #4, and GAPD control siRNA pool were purchased from Thermo Scientific (Dharmacon). siRNA was delivered in triplicate to each well using a Precision^TM microplate liquid handler (BioTek). Plates were incubated for 5 days for cell viability assay and for 48 h for the pERK and pAKT in-cell western analyses. […] Viability and signaling changes were determined for each target gene after normalization on ON-TARGET plus Non-Targeting pool control siRNA. […]
(§14) The cell viability assay (CellTiter-Glo) was conducted according to the recommendations for the CellTiter-Glo Luminescent Cell Viability Assay from Promega (Madison, WI). Cells were plated […]
(§15) and either transfected with siRNA or infected with […] of lentiviruses plus 6 µg/mL polybrene (Sigma) for 5 days. Cell-Titer Glo reagent was added to each well, and luminescence was recorded using Victor plate reader from PerkinElmer (Walthom, MA). […]

A further data set has as its system HCC827ER cells. The procedure: as §13, §14, §15
A further data set concerns PC9 cells. The procedure:
as §13, §14, §15

In a further data set the test system is HCC4006ER cells. How it is done:
as §13, §14, §15

The next data set relates to PC9GR cells. How it is done: as §13, §14, §15
The test system of another data set is HCC4006 cells. How it is done:
as §13, §14, §15

“Also recorded” adds a separate entry of the source. Read-outs that look alike come from different tables or passages of the source.

With `C[C@]12O[C@H](C[C@]1(O)CO)n1c3ccccc3c3c4c(c5c6ccccc6n2c5c31)CNC4=O` [CEP-701, lestaurtinib], in data set [1] (leukemia, ref Marshall et al, 2005), the tolerability entry is on record as “good tolerability”. Also, the “effects on EGFR and downstream ERK phosphorylation” value (shortened to “effects”) in [2] is reported as “little to modest effects; also recorded: reductions in ERK phosphorylation at concentrations below those necessary for inhibition of EGFR phosphorylation”.
Take `C#Cc1cccc(Nc2ncnc3cc(OCCOC)c(OCCOC)cc23)c1` [Erlotinib, erlotinib]: the “effects” value in data set [2] is listed as “modest effects”.
In the case of `CO[C@@H]1[C@H](N(C)C(=O)c2ccccc2)C[C@H]2O[C@]1(C)n1c3ccccc3c3c4c(c5c6ccccc6n2c5c31)C(=O)NC4` [Midostaurin, midostaurin], the “EGFR binding to immobilized midostaurin” value in data set [3] is reported as “no EGFR associated with midostaurin”; in [5], “EGFR bound to midostaurin”. In data set [4], the “protein kinases observed in total in midostaurin pulldown” value amounted to 71. Besides, the “effect on EGFR kinase activity” value on EGFR L858R and on EGFR wild type was “no substantial effect” in each case. For the same compound, in data set [1] (patients with leukemia and lung cancer, ref Monnerat et al, 2004, Fischer et al, 2010), the tolerability entry is reported as “well tolerated”. The “effects” value in [2] (western blotting after 4 h, three T790M EGFR cell lines) is “modest effects”.
As for TITIN, the “HCC827_Viability Viability %” value with HCC827 cells is given as 67.29%. In addition, the “HCC827ER_Viability Viability %” value in the data set on HCC827ER cells was 73.41%. Moreover, in the data set on PC9 cells, the “PC9_Viability Viability %” value is 69.56%. The “HCC4006ER_Viability Viability %” value with HCC4006ER cells was 71.94%. Besides, in the data set with PC9GR cells, the “PC9GR_Viability Viability %” value is 62.56%. Further, the “HCC4006_Viability Viability %” value in the data set on HCC4006 cells is recorded as 63.88%.

The values above are taken from publication PMC4039310 (Molecular Systems Biology, 2013).
